# From ChEMBL document CHEMBL5046279, “Discovery of a Partial Glucokinase Activator Clinical Candidate: Diethyl ((3-(3-((5-(Azetidine-1-carbonyl)pyrazin-2-yl)oxy)-5-isopropoxybenzamido)-1H-pyrazol-1-yl)methyl)phosphonate (BMS-820132)” (J Med Chem, 2022)
# Legend:
# [1] = AUC (0 to 24 hrs) in CD1 mouse at 5 mg/kg, po measured upto 24 hrs by LC-MS/MS analysis; format: ADME, organism-based; parameters: route oral, dose 5 mg/kg, time <=24; conditions: in vivo
# [2] = AUC (0 to 24 hrs) in cynomolgus monkey at 3 mg/kg, iv measured upto 24 hrs; format: ADME, organism-based, Macaca fascicularis; parameters: route intravenous, dose 3 mg/kg, time <=24; conditions: in vivo
# [3] = AUC (0 to 24 hrs) in cynomolgus monkey at 3 mg/kg, po measured upto 24 hrs; format: ADME, organism-based, Macaca fascicularis; parameters: route oral, dose 3 mg/kg, time <=24; conditions: in vivo
# [4] = Aqueous solubility of the compound at pH 6.5 using amorphous form of sample; format: physicochemical; conditions: aqueous solution
# [5] = Microsomal stability in human liver microsomes assessed as parent compound remaining at 0.5 uM measured after 10 mins in presence of NADPH; format: ADME, Microsome; conditions: read-out: Stability
# [6] = target: Voltage-gated inwardly rectifying potassium channel KCNH2 (Homo sapiens, UniProt Q12809); test: Inhibition of hERG by patch clamp method; format: toxicity
# [7] = Cmax in cynomolgus monkey at 3 mg/kg, po measured upto 24 hrs; format: ADME, organism-based, Macaca fascicularis; parameters: route oral, dose 3 mg/kg, time <=24; conditions: in vivo
# [8] = Tmax in Beagle dog at 3 mg/kg, po measured upto 24 hrs; format: ADME, organism-based, Canis lupus familiaris; conditions: in vivo
# [9] = Tmax in cynomolgus monkey at 3 mg/kg, po measured upto 24 hrs; format: ADME, organism-based, Macaca fascicularis; conditions: in vivo
# [10] = Half life in CD1 mouse at 2.5 mg/kg, iv measured upto 24 hrs by LC-MS/MS analysis; format: ADME, organism-based; conditions: in vivo
# [11] = Half life in Sprague-Dawley rat at 2.5 mg/kg, po measured upto 24 hrs by LC-MS/MS analysis; format: ADME, organism-based; conditions: in vivo
# [12] = Half life in cynomolgus monkey at 3 mg/kg, iv measured upto 24 hrs; format: ADME, organism-based, Macaca fascicularis; conditions: in vivo
# [13] = Volume of distribution at steady state in CD1 mouse at 2.5 mg/kg, iv measured upto 24 hrs by LC-MS/MS analysis; format: ADME, organism-based; conditions: in vivo, read-out: Vdss
# [14] = Volume of distribution at steady state in Beagle dog at 3 mg/kg, iv measured upto 24 hrs; format: ADME, organism-based, Canis lupus familiaris; conditions: in vivo, read-out: Vdss
# [15] = Volume of distribution at steady state in cynomolgus monkey at 3 mg/kg, iv measured upto 24 hrs; format: ADME, organism-based, Macaca fascicularis; conditions: in vivo, read-out: Vdss
# [16] = Systemic plasma clearance in Sprague-Dawley rat at 2.5 mg/kg, iv measured upto 24 hrs by LC-MS/MS analysis; format: ADME, organism-based
# [17] = Systemic plasma clearance in cynomolgus monkey at 3 mg/kg, iv measured upto 24 hrs; format: ADME, organism-based, Macaca fascicularis
# [18] = Oral bioavailability in Sprague-Dawley rat at 5 mg/kg measured upto 24 hrs by LC-MS/MS analysis; format: ADME, organism-based; conditions: in vivo
# [19] = AUC (0 to 24 hrs) in Sprague-Dawley rat at 5 mg/kg, po measured upto 24 hrs by LC-MS/MS analysis; format: ADME, organism-based; parameters: route oral, dose 5 mg/kg, time <=24; conditions: in vivo
# [20] = AUC (0 to 24 hrs) in Beagle dog at 3 mg/kg, po measured upto 24 hrs; format: ADME, organism-based, Canis lupus familiaris; parameters: route oral, dose 3 mg/kg, time <=24; conditions: in vivo
# hERG (KCNH2) = hERG (KCNH2) (Homo sapiens, UniProt Q12809); test: Inhibition of hERG channel at 30 uM by patch clamp assay relative to control; format: toxicity
# sodium channel = test: Inhibition of sodium channel (unknown origin) at 4 Hz at 10 uM by patch clamp assay relative to control; format: toxicity; conditions: human
# Salmonella typhimurium [21] = test: Mutagenicity in Salmonella typhimurium TA100 at 5000 ug/plate in presence of S9 fraction by Ames test; format: toxicity, organism-based; conditions: salmonella enterica subsp. enterica serovar typhimurium, dose 5000 µg
# Salmonella typhimurium [22] = test: Mutagenicity in Salmonella typhimurium TA100 at 5000 ug/plate in absence of S9 fraction by Ames test; format: toxicity, organism-based; conditions: salmonella enterica subsp. enterica serovar typhimurium; dose 5000 µg
# Salmonella typhimurium [23] = test: Mutagenicity in Salmonella typhimurium TA1535 at 5000 ug/plate in presence of S9 fraction by Ames test; format: toxicity, organism-based; conditions: salmonella enterica subsp. enterica serovar typhimurium, dose 5000 µg
# Escherichia coli [24] = test: Mutagenicity in Escherichia coli WP2 uvrA at 5000 ug/plate in presence of S9 fraction by Ames test; format: toxicity, organism-based; conditions: dose 5000 µg
# Escherichia coli [25] = test: Mutagenicity in Escherichia coli WP2 uvrA at 5000 ug/plate in absence of S9 fraction by Ames test; format: toxicity, organism-based
# CHO = test: Mutagenicity in CHO cells; format: toxicity, cell-based, Cricetulus griseus; conditions: chinese hamster
# Hexokinase-4 = target: T1, Hexokinase-4 (Mus musculus, UniProt P52792); test: Activation of recombinant mouse full length liver glucokinase expressed in Escherichia coli incubated for 10 mins in presence of 12 mM glucose by plate reader analysis
# T1 sequence (P52792 whole entry): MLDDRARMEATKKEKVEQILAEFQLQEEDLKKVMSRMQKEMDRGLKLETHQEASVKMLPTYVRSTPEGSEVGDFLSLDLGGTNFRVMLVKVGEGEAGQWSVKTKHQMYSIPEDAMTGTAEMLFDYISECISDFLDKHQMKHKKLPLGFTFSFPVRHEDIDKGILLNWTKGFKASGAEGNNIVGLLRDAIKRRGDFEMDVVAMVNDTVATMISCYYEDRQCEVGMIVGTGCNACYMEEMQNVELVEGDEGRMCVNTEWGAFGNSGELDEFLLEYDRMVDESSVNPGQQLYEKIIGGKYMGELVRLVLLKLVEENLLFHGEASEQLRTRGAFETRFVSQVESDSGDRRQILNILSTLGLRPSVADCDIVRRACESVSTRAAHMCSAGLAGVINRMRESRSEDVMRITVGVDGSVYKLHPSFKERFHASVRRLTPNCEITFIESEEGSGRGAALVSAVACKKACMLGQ
# Mus musculus [26] = test: Anti-hyperglycemic activity in C57BL/6J DIO mouse assessed as reduction in plasma glucose level at 3 umol/kg measured at 1 hr post dose on day 1 by OGTT; format: functional; parameters: scale not given: the % may be the effect or the level left; conditions: dose 3 µM/Kg, at 3 µmol/kg
# Mus musculus [27] = test: Anti-hyperglycemic activity in C57BL/6J DIO mouse assessed as reduction in plasma glucose level at 30 umol/kg, po qd measured on day 14 by OGTT; format: functional; parameters: scale not given: the % may be the effect or the level left; conditions: dose 30 µM/Kg; time 24 hrs; at 30 µmol/kg
# Mus musculus [28] = test: Anti-hyperglycemic activity in C57BL/6J DIO mouse assessed as reduction in plasma glucose AUC at 3 umol/kg, po measured after 120 mins by OGTT; format: functional; parameters: scale not given: the % may be the effect or the level left; conditions: dose 3 µM/Kg, 2 h, at 3 µmol/kg
# Mus musculus [29] = test: Anti-hyperglycemic activity in C57BL/6J DIO mouse assessed as reduction in plasma glucose AUC at 30 umol/kg, po measured after 120 mins by OGTT; format: functional; parameters: scale not given: the % may be the effect or the level left; conditions: dose 30 µM/Kg, 2 h, at 30 µmol/kg
# Mus musculus [30] = test: Anti-hyperglycemic activity in C57BL/6J DIO mouse assessed as reduction in plasma glucose level at 3 umol/kg measured after 14 days; format: functional; parameters: scale not given: the % may be the effect or the level left; conditions: dose 3 µM/Kg; time 14 day; at 3 µmol/kg
# Mus musculus [31] = test: Anti-hyperglycemic activity in C57BL/6J DIO mouse assessed as reduction in plasma glucose level at 30 umol/kg measured after 14 days; format: functional; parameters: scale not given: the % may be the effect or the level left; conditions: dose 30 µM/Kg; time 14 day; at 30 µmol/kg
# Mus musculus [32] = test: Anti-hyperglycemic activity in C57BL/6J DIO mouse assessed as reduction in plasma glucose AUC at 3 umol/kg incubated for 120 mins by OGTT; format: functional; parameters: scale not given: the % may be the effect or the level left; conditions: dose 3 µM/Kg, 2 h, at 3 µmol/kg
# [33] = Aqueous solubility of the compound at pH 6.5 using crystaline form of sample; format: physicochemical
# [34] = Protein binding in mouse serum; format: ADME, cell-free; conditions: pooled result: one value given for 5 cell lines, strains, targets or settings, read-out: PB (converted)
# Voltage-gated inwardly rectifying potassium channel KCNH2, sequence (Q12809 whole entry): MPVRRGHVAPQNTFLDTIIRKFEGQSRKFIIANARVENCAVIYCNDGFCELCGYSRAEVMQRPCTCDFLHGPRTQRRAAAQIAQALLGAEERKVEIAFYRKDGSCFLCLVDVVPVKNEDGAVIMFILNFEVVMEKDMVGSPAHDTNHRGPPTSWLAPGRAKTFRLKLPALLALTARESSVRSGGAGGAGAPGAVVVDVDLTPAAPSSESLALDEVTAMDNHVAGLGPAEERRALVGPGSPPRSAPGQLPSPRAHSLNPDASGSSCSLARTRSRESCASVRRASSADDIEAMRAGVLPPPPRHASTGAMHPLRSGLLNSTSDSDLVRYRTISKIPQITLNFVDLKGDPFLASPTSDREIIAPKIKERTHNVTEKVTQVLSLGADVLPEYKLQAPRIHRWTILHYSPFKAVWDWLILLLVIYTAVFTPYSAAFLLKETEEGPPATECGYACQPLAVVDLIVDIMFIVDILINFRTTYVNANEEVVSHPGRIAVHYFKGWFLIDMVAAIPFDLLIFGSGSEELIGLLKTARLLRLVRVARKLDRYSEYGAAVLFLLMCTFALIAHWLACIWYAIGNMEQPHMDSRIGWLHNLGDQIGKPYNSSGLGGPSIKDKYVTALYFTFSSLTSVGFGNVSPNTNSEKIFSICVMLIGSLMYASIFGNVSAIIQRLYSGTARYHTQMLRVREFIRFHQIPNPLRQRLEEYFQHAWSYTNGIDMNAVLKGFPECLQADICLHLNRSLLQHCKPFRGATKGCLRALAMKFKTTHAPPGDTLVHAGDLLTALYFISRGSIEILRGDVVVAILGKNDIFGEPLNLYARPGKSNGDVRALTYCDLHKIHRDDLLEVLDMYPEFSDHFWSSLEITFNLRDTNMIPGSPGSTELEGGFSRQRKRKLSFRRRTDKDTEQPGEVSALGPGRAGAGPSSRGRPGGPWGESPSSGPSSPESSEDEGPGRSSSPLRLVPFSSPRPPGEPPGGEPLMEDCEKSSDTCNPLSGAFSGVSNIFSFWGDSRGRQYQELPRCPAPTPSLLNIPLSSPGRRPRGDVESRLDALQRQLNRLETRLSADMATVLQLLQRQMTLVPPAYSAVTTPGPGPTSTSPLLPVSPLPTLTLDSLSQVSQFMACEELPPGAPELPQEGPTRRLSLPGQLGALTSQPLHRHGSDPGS
# hERG (KCNH2), sequence (Q12809 whole entry): as above
smiles,measurement,setting,value
CCOP(=O)(Cn1ccc(NC(=O)c2cc(Oc3cnc(C(=O)N4CCC4)cn3)cc(OC(C)C)c2)n1)OCC,AUC(0-t),[1],49.7 µM·h
same,AUC(0-t),[2],3.8 µM·h
same,AUC(0-t),[3],0.57 µM·h
same,solubility,[4],10 µg/mL
same,"remaining at 10 min, 0.5 µM",[5],96%
same,IC50,[6],> 80 µM
same,Cmax,[7],380 nM
same,Tmax,[8],48 min
same,Tmax,[9],1.3 h
same,half-life,[10],126 min
same,half-life,[11],54 min
same,half-life,[12],114 min
same,Vd,[13],0.3 L/kg
same,Vd,[14],0.5 L/kg
same,Vd,[15],1.1 L/kg
same,clearance,[16],4.4 mL/min/kg
same,clearance,[17],22.7 mL/min/kg
same,bioavailability,[18],90%
same,AUC(0-t),[19],29.5 µM·h
same,AUC(0-t),[20],8 µM·h
same,inhibition at 30 µM,hERG (KCNH2),29%
same,inhibition at 10 µM,sodium channel,12%
same,Activity,Salmonella typhimurium [21],Non-Toxic
same,Activity,Salmonella typhimurium [22],Non-Toxic
same,Activity,Salmonella typhimurium [23],Non-Toxic
same,Activity,Escherichia coli [24],Non-Toxic
same,Activity,Escherichia coli [25],Non-Toxic
same,Activity,CHO,Toxic
same,EC50,Hexokinase-4,32 nM
same,Activity,Mus musculus [26],-32%
same,Activity,Mus musculus [27],-46%
same,Activity,Mus musculus [28],-31%
same,Activity,Mus musculus [29],-59%
same,Activity,Mus musculus [30],-48%
same,Activity,Mus musculus [31],-63%
same,Activity,Mus musculus [32],-50%
same,solubility,[33],10 µg/mL
same,fraction unbound,[34],0.168
